Results on 17 compounds are retold here after patent US8263606B2 (Xenon Pharmaceuticals Inc., priority 2008, dated 2012).

The target in data set [1] is CYP3A4 (Homo sapiens, UniProt P08684). Briefly: Cytochrome P450 (CYP450) Inhibition Assay, CYP3A4 (Vivid fluorescence, BOMCC substrate). The conditions noted are these: human, P450 Baculosomes (recombinant CYP3A4), probe BOMCC (Vivid substrate).
The test system of data set [2] is inactivated state of the channel of interest (sodium channel). Briefly: Electrophysiological assay (whole cell voltage clamp, in vitro). The data set is classed as cell-based. Conditions: affinity for the inactivated state of the channel of interest. In short, it runs like this: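 Whole-cell voltage clamp at ambient temperature on stably transfected cells; CsF-based pipette, pH 7.4 NaCl bath. Current blockade measured at holding potentials of −120 mV (resting, Kr) and one giving 10% availability (inactivated, Ki), held ≥10 s to equilibrate; apparent Kd calculated from fractional block.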

The test system of data set [3] is sodium channel. Briefly: Guanidine influx assay (14C-guanidine radiotracer flux, in vitro). The conditions noted are these: guanidine influx assay using a known cell line that expresses a sodium channel. The data set is classed as cell-based, human or rat. The gist of the method: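 Radiotracer read-out: intracellular 14C-guanidine counted after washing with guanidine-supplemented low-sodium buffer. Cells expressing human or rat channels get test agent plus aconitine activator and tracer, incubated at ambient temperature. Dilution series centred on 1 μM; IC50 by sigmoidal dose-response fit.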

In data set [4] the test system is Nav1.4 and 1.5. The data set is classed as cell-based, rat.
For data set [5], the system named is Nav1.9 and Nav1.7. It counts as cell-based, Human.
Data set [6] has as its target Nav1.4 (Cricetulus griseus, UniProt A0A9J7H6F9). The data set is classed as cell-based, Chinese Hamster.
The target of data set [7] is Nav1.8 (Homo sapiens, UniProt Q9Y5Y9). The data set is classed as cell-based.
Data set [8] addresses Nav1.2 (Rattus norvegicus, UniProt P04775).
For data set [9] the following is noted: rat; intravenous application; concentrations that do not affect general behaviour and motor function; cited from earlier work.

Chain of CYP3A4 (P08684 whole entry): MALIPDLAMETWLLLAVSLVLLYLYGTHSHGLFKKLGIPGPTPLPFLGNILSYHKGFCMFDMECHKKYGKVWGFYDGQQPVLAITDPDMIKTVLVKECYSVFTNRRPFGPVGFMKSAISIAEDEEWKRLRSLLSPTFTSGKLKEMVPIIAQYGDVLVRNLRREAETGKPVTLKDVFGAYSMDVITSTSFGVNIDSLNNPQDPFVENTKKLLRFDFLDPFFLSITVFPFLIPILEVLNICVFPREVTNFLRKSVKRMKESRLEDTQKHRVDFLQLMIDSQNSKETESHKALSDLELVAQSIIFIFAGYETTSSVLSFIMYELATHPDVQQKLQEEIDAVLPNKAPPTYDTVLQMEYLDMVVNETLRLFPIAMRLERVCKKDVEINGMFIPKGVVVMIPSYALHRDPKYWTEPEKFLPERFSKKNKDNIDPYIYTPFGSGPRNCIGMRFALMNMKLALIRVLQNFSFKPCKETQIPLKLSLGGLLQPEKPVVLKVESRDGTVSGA
Chain of Nav1.4 (A0A9J7H6F9 1-1930): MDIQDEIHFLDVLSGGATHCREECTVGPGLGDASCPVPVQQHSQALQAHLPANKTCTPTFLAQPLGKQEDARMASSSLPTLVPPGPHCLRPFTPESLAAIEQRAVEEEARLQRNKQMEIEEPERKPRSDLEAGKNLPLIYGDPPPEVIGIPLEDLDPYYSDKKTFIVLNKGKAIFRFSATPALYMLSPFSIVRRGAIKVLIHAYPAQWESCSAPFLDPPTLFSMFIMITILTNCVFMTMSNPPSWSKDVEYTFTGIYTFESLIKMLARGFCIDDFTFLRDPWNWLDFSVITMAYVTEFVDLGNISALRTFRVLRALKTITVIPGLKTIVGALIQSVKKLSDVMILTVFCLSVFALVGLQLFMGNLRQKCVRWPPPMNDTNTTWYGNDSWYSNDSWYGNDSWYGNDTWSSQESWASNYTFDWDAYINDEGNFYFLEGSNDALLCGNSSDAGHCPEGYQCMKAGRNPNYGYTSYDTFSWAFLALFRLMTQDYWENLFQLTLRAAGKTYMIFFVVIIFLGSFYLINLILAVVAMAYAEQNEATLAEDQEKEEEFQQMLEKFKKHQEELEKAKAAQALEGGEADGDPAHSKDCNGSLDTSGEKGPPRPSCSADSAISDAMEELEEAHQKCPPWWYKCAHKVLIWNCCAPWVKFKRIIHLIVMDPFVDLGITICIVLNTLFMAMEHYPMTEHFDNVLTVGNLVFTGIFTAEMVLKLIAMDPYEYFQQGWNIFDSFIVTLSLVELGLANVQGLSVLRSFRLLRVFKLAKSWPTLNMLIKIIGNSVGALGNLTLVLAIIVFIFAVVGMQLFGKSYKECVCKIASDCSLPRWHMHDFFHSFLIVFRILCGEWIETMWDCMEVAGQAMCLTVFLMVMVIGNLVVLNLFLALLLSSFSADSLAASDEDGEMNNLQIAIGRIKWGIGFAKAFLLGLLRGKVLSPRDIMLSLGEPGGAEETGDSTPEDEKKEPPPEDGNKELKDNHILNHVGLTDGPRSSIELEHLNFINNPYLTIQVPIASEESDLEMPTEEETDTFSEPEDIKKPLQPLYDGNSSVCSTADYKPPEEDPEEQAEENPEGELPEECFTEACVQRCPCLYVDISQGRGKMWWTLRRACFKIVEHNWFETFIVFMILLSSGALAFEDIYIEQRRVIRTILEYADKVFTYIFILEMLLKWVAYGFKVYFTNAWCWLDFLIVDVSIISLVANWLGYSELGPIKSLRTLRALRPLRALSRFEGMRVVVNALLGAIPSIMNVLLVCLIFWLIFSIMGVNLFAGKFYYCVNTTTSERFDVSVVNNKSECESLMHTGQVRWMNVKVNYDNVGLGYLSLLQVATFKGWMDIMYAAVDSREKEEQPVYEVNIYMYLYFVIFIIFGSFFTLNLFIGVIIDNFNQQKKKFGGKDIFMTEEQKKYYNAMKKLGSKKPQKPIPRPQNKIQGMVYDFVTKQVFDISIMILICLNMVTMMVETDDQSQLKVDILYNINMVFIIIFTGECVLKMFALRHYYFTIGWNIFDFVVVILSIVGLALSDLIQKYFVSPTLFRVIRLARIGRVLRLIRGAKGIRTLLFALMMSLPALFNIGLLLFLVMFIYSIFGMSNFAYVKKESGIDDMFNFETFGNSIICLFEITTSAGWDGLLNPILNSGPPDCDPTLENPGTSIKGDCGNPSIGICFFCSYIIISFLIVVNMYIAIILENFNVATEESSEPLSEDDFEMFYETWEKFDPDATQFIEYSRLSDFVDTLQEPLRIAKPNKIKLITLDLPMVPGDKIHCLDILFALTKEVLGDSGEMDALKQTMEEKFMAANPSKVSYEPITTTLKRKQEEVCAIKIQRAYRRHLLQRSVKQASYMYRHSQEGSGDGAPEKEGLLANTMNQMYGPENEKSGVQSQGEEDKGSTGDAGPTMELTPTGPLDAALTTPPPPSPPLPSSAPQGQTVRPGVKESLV
Chain of Nav1.8 (Q9Y5Y9 whole entry, looked up): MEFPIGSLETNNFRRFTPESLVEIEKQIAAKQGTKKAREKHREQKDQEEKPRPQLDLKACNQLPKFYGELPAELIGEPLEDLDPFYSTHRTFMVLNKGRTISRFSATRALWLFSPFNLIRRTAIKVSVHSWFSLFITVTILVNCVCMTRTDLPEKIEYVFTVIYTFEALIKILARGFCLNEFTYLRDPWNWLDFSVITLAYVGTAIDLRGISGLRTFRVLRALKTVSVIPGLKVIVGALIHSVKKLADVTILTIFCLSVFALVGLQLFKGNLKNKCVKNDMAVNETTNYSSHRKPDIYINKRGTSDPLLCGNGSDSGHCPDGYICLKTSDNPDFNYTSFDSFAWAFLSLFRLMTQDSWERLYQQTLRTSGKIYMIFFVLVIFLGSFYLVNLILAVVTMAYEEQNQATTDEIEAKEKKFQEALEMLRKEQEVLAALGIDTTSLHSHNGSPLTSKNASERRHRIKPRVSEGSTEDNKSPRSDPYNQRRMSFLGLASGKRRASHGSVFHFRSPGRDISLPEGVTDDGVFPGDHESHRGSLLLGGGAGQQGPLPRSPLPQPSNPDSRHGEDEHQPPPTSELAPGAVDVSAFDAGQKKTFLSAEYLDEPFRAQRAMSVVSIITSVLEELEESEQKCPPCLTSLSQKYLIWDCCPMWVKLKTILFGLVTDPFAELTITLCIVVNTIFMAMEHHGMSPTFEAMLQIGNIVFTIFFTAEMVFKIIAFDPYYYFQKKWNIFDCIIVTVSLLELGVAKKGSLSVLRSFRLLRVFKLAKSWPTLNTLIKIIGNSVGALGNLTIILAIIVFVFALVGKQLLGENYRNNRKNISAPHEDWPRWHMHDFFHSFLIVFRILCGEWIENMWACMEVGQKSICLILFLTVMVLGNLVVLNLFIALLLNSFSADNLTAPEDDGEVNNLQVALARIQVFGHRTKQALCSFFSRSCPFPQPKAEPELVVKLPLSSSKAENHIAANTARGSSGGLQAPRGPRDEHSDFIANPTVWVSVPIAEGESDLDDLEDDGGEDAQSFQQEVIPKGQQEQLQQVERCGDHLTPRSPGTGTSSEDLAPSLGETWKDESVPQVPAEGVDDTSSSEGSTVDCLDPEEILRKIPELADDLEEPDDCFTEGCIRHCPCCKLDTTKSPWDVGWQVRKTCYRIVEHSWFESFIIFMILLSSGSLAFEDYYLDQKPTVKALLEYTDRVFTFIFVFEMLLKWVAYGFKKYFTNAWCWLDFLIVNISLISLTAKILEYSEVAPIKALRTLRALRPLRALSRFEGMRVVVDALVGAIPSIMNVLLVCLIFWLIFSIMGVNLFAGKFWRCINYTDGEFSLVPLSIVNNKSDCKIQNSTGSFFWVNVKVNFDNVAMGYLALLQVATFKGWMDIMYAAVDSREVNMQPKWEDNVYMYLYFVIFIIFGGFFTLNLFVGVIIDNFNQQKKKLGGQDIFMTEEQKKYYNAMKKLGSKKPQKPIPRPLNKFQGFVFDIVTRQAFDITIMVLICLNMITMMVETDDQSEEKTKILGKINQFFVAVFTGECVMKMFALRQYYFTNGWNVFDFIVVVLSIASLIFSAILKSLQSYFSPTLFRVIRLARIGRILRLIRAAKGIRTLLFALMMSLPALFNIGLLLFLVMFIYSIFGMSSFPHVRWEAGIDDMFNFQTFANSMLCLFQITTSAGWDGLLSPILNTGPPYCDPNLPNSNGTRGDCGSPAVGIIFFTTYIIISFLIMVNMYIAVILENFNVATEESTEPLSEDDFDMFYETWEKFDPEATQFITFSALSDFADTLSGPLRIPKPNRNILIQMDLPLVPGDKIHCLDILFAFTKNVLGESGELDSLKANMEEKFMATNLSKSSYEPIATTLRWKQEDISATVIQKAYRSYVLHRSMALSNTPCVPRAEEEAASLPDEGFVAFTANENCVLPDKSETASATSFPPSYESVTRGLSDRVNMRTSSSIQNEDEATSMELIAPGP

Usually inhibition stands for the percentage by which the read-out fell short of the control. One may read the IC50 as the concentration that gives 50% inhibition. What is called melting point is the temperature, or range, at which the solid turns liquid. `O=C1N(Cc2ccc(C(F)(F)F)o2)c2ccccc2[C@]12COc1cc3c(cc12)CCO3` [Example 5.7, (3S)-1′-{[5-(trifluoromethyl)furan-2-yl]methyl}-5,6-dihydrospiro[benzo[1,2-b:5,4-b′]difuran-3,3′-indol]-2′(1′H)-one] registered a melting point of 64 to 65 °C. Moreover, in data set [1], the inhibition at 10 µM is above 50%. The Ki in [2] was below 300 nM. Moreover, the IC50 in data set [3] (activity level class) lay in the range of 1 to 100 nM.
Taken in the same sequence, the figures for `COc1ncc(CN2C(=O)[C@@]3(COc4cc5c(cc43)OCCO5)c3ccccc32)cn1` [Example 5.17, (8S)-1′-[(2-methoxypyrimidin-5-yl)methyl]-2,3-dihydrospiro[furo[2,3-g][1,4]benzodioxine-8,3′-indol]-2′(1′H)-one] were 102 to 104 °C, below 50%, below 300 nM and 1 to 100 nM.
With `O=C1N(Cc2ncccn2)c2ccccc2[C@]12COc1cc3c(cc12)OCCO3` [Example 5.18, (8S)-1′-(pyrimidin-2-ylmethyl)-2,3-dihydrospiro[furo[2,3-g][1,4]benzodioxine-8,3′-indol]-2′(1′H)-one], the melting point was 210 to 212 °C. For the same compound, the inhibition at 10 µM in [1] is below 50%. In data set [2], this compound had a Ki below 300 nM. The IC50 in [3] (activity level class) lay within 1 to 100 nM.
Taken in the same sequence, the figures for `CCCCCN1C(=O)C2(COc3cc4c(cc32)OCCO4)c2ccccc21` (stereo not drawn) [Example 8.4, 1′-pentyl-2,3-dihydrospiro[furo[2,3-g][1,4]benzodioxine-8,3′-indol]-2′(1′H)-one] were 129 to 130 °C, above 50%, below 300 nM and 1 to 100 nM.
The compound `O=C1N(C[C@H]2COCCO2)c2ccccc2[C@@]12COc1cc3c(cc12)OCCO3` [Example 8.6, (8R)-1′-[(2S)-1,4-dioxan-2-ylmethyl]-2,3-dihydrospiro[furo[2,3-g][1,4]benzodioxine-8,3′-indol]-2′(1′H)-one] returned a melting point of 207 to 209 °C. Further, the inhibition at 10 µM in data set [1] was below 50%. In [2], this compound displayed a Ki above 300 nM. Moreover, the IC50 in [3] (activity level class) lay within 1000 to 10000 nM.
Taken in the same sequence, the figures for `O=C1N(C[C@@H]2COCCO2)c2ccccc2[C@]12COc1cc3c(cc12)OCCO3` [Example 8.8, (8S)-1′-[(2R)-1,4-dioxan-2-ylmethyl]-2,3-dihydrospiro[furo[2,3-g][1,4]benzodioxine-8,3′-indol]-2′(1′H)-one] were 207 to 210 °C, below 50%, below 300 nM and 1 to 100 nM.
Taken in the same sequence, the figures for `O=C1N(C[C@@H]2COCCO2)c2ccccc2C12COc1cc3c(cc12)OCCCO3` (stereo partly drawn) [Example 8.12, 1′-[(2R)-1,4-dioxan-2-ylmethyl]-3,4-dihydro-2H-spiro[furo[2,3-h][1,5]benzodioxepine-9,3′-indol]-2′(1′H)-one] were 144 to 147 °C, below 50%, above 300 nM and 100 to 1000 nM.
Taken in the same sequence, the figures for `Cc1noc2cc3c(cc12)C1(CO3)C(=O)N(Cc2ccc(C(F)(F)F)o2)c2ccccc21` (stereo not drawn) [Example 9, 3-methyl-1′-{[5-(trifluoromethyl)furan-2-yl]methyl}spiro[furo[3,2-f][1,2]benzisoxazole-5,3′-indol]-2′(1′H)-one] were 111 to 112 °C, above 50%, below 300 nM and 1 to 100 nM.
Consider `O=C1N(Cc2ccncn2)c2ccccc2C12COc1cc3c(cc12)CCO3` (stereo not drawn) [Example 9.6, 1-(pyrimidin-4-ylmethyl)-5,6-dihydrospiro[benzo[1,2-b:5,4-b′]difuran-3,3′-indol]-2′(1′H)-one], for which the melting point fell in the range of 158 to 160 °C. In data set [1], the inhibition at 10 µM is below 50%. The Ki in data set [2] was above 300 nM. In addition, in [3] (activity level class), the concentration for half-maximal inhibition (IC50) is 1 to 100 nM.
Taken in the same sequence, the figures for `COCCOCCN1C(=O)C2(COc3cc4c(cc32)OCCO4)c2ccccc21` (stereo not drawn) [Example 9.20, 1′-[2-(2-methoxyethoxy)ethyl]-2,3-dihydrospiro[furo[2,3-g][1,4]benzodioxine-8,3′-indol]-2′(1′H)-one] were 90 to 91 °C, below 50%, below 300 nM and 1 to 100 nM.
The compound `Cc1noc2cc3c(cc12)C1(CO3)C(=O)N(Cc2ccccn2)c2ccccc21` (stereo not drawn) [Example 9.24, 3-methyl-1′-(pyridin-2-ylmethyl)spiro[furo[3,2-f][1,2]benzisoxazole-5,3′-indol]-2′(1′H)-one] came in with a melting point of 142 to 143 °C. In data set [1], the inhibition at 10 µM was above 50%. In data set [2], the Ki is above 300 nM. The IC50 in [3] (activity level class) was in the range of 1 to 100 nM.
On to `Cc1nc(-c2ccc(CN3C(=O)C4(COc5cc6c(cc54)CCO6)c4ccccc43)cc2)no1` (stereo not drawn) [Example 11.14, 1′-[4-(5-methyl-1,2,4-oxadiazol-3-yl)benzyl]-5,6-dihydrospiro[benzo[1,2-b:5,4-b′]difuran-3,3′-indol]-2′(1′H)-one], for which the melting point was 185 to 186 °C. In data set [1], the inhibition at 10 µM was below 50%. Moreover, the Ki in data set [2] was below 300 nM. The IC50 in data set [3] was in the range of 1 to 100 nM.
In the case of `Cc1nc(-c2cccc(CN3C(=O)C4(COc5cc6c(cc54)CCO6)c4ccccc43)c2)no1` (stereo not drawn) [Example 11.27, 1′-[3-(5-methyl-1,2,4-oxadiazol-3-yl)benzyl]-5,6-dihydrospiro[benzo[1,2-b:5,4-b′]difuran-3,3′-indol]-2′(1′H)-one], the melting point fell in the range of 209 to 213 °C. The inhibition at 10 µM in data set [1] was above 50%. For the same compound, in data set [2], the Ki is below 300 nM. Further, in [3], the IC50 lay within 1 to 100 nM.
Taken in the same sequence, the figures for `CN(C)C(=O)c1ccc(CN2C(=O)C3(COc4cc5c(cc43)OCCO5)c3ccccc32)o1` (stereo not drawn) [Example 11.33, N,N-dimethyl-5-[(2′-oxo-2,3-dihydrospiro[furo[2,3-g][1,4]benzodioxine-8,3′-indol]-1′(2′H)-yl)methyl]furan-2-carboxamide] were 224 to 226 °C, above 50%, below 300 nM and 100 to 1000 nM.
Taken in the same sequence, the figures for `Cc1nc(-c2ccc3c(c2)OCC32C(=O)N(Cc3ccccn3)c3ccccc32)no1` (stereo not drawn) [Example 11.85, 6-(5-methyl-1,2,4-oxadiazol-3-yl)-1′-(pyridin-2-ylmethyl)spiro[1-benzofuran-3,3′-indol]-2′(1′H)-one] were 147 to 148 °C, below 50%, above 300 nM and 100 to 1000 nM.
As to `NC1=N[C@H](O)[C@H]2[C@H]3O[C@]4(O)O[C@@H]([C@@H](O)[C@@]2(N1)[C@@H]4O)[C@]3(O)CO` [TTX, tetrodotoxin], the “block of the increase in [14C] guanidine influx” value in data set [4] is listed as “partially blocked by TTX at 100 nM”; in [5], “background was partially blocked”; in data set [6] it was “completely blocked using TTX”; in data set [7], “TTX partially blocked influx”; in data set [8], “guanidine influx was completely”.
Consider `CCN(CC)CC(=O)Nc1c(C)cccc1C` [lidocaine], for which, in data set [9], the “effect on ectopic activity and tactile allodynia” value is “suppress the ectopic activity and reverse the tactile allodynia”.
